Results taken from patent US8158810B2 (Gilead Sciences, Inc., priority 2006, dated 2012).

Tests used:
[1] = molecular target: T1, hMAO-A (Homo sapiens, UniProt P21397); assay: MAO-A inhibition assay; format: biochemical; settings: No = no inhibition; for hMAO-A inhibition up to 10 μM: printed in the IC50 hMAO-A column
T1 construct: purchased Sigma M7316
T1 sequence (P21397 1-527): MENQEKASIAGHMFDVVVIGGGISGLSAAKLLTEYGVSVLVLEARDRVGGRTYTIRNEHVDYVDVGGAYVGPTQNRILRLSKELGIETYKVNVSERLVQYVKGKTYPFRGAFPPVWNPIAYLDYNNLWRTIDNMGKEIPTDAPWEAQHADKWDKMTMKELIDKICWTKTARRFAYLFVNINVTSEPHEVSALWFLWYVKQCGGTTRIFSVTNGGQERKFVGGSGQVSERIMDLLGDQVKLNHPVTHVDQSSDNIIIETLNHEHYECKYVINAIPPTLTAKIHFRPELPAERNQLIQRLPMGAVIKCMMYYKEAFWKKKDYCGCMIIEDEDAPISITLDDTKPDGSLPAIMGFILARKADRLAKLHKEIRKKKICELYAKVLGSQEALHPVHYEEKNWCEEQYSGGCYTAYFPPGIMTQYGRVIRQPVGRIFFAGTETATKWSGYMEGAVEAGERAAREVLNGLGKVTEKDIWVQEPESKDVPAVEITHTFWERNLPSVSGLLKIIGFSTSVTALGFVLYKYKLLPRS
Method: (§1) MAO-A (Sigma M7316) and MAO-B (Sigma M7441) inhibition assays were conducted in 96-well micro-plates according to the method described by Zhou et al. [Analytical Biochemistry 253, 169-174, 1997]. […] Reactions were initiated by the addition of a pre-mixed solution of tyramine, horseradish peroxidase and Amplex Red, and were allowed to proceed at 37° C. for 30 min. Enzyme activities were determined by measuring absorbance at 570 nm (SpectralMax Plate reader), absorbance of oxidized Amplex Red generated by this horseradish peroxidase-coupled reaction. Nonspecifically formed products were determined in the presence of 2 and 10 µM clorgyline and deprenyl for MAO-A and MAO-B, respectively. IC50 values were determined by fitting concentration-inhibition data to sigmoidal dose-response curves with two-floating parameters: IC50 and Hill coefficient.

[2] = molecular target: T2, hMAO-B (Homo sapiens, UniProt P27338); assay: MAO-B inhibition assay; format: biochemical; settings: No = no inhibition; for hMAO-B inhibition at 10 μM: printed in the IC50 hMAO-B column
T2 construct: purchased Sigma M7441
T2 sequence (P27338 1-520): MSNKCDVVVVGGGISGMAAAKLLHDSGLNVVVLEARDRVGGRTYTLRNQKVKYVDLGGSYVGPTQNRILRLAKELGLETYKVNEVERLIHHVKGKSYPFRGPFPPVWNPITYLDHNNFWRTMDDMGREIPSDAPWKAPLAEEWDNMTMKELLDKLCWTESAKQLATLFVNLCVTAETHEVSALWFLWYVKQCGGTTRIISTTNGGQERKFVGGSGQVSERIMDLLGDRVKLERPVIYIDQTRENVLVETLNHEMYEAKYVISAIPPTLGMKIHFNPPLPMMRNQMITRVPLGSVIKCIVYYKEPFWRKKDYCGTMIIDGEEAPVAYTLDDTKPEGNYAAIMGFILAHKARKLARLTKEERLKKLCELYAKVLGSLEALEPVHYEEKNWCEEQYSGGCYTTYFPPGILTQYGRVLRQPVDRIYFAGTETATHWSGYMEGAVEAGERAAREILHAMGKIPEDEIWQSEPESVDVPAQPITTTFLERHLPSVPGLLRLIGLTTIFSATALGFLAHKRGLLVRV
Method: as §1

| hMAO-A inhibition up to 10 μM [1] | hMAO-B inhibition at 10 μM [2] | Structure (SMILES) | other results |
| --- | --- | --- | --- |
| No | No | CCOC(=O)c1cnn(CCOc2ccc3c(=O)c(-c4ccc(O)cc4)coc3c2)c1 [PT-122, ethyl 1-{2-[3-(4-hydroxyphenyl)-4-oxochromen-7-yloxy]ethyl}pyrazole-4-carboxylate] |  |
| No | No | O=c1c(-c2ccc(O)cc2)coc2cc(OCc3nnc(-c4cccnc4)o3)ccc12 [PT-110, 3-(4-hydroxyphenyl)-7-[(5-(3-pyridyl)(1,3,4-oxadiazol-2-yl))methoxy]chromen-4-one] |  |
| No | No | CNC(=O)c1coc(COc2ccc3c(=O)c(-c4ccc(O)cc4)coc3c2)n1 [PT-118, (2-{[3-(4-hydroxyphenyl)-4-oxochromen-7-yloxy]methyl}(1,3-oxazol-4-yl))-N-methylcarboxamide] |  |
| No | No | COc1ccc2c(COc3ccc4c(=O)c(-c5ccc(O)cc5)coc4c3)cc(=O)oc2c1 [PT-119, 4-{[3-(4-hydroxyphenyl)-4-oxochromen-7-yloxy]methyl}-7-methoxychromen-2-one] |  |
| No | No | NC(=O)c1ccc(-c2coc3cc(OCc4noc(-c5cc(F)cc(C(F)(F)F)c5)n4)ccc3c2=O)cc1 [PT-72, 4-[7-({5-[3-fluoro-5-(trifluoromethyl)phenyl](1,2,4-oxadiazol-3-yl)}methoxy)-4-oxochromen-3-yl]benzamide] |  |
| No | No | O=c1c(-c2ccc(O)cc2)coc2cc(OCc3nc(-c4cccnc4)no3)ccc12 [PT-114, 3-(4-hydroxyphenyl)-7-[(3-(3-pyridyl)(1,2,4-oxadiazol-5-yl))methoxy]chromen-4-one] |  |
| No | No | O=c1c(-c2ccc(O)cc2)coc2cc(OCc3nnc(-c4ccccc4Cl)o3)ccc12 [PT-80, 7-{[5-(2-chlorophenyl)(1,3,4-oxadiazol-2-yl)]methoxy}-3-(4-hydroxyphenyl)chromen-4-one] |  |
| No | No | Nc1cccc(-c2nnc(COc3ccc4c(=O)c(-c5ccc(O)cc5)coc4c3)o2)c1 [PT-121, 7-{[5-(3-aminophenyl)(1,3,4-oxadiazol-2-yl)]methoxy}-3-(4-hydroxyphenyl)chromen-4-one] |  |
| No |  | C[C@@H](NC(=O)COc1ccc2c(=O)c(-c3ccc(O)cc3)coc2c1)c1ccc(F)cc1 [PT-90, N-[(1R)-1-(4-fluorophenyl)ethyl]-2-[3-(4-hydroxyphenyl)-4-oxochromen-7-yloxy]acetamide] |  |

Second part, the molecule before the results:

| Structure (SMILES) | hMAO-A inhibition up to 10 μM [1] | hMAO-B inhibition at 10 μM [2] | other results |
| --- | --- | --- | --- |
| O=c1c(-c2ccc(O)cc2)coc2cc(OCc3coc(-c4cccc(C(F)(F)F)c4)n3)ccc12 [PT-12, 3-(4-hydroxyphenyl)-7-({2-[3-(trifluoromethyl)phenyl](1,3-oxazol-4-yl)}methoxy)chromen-4-one] | No | No |  |
| N#Cc1cccc(-c2nc(COc3ccc4c(=O)c(-c5ccc(O)cc5)coc4c3)no2)c1 [PT-40, 3-(3-{[3-(4-hydroxyphenyl)-4-oxochromen-7-yloxy]methyl}-1,2,4-oxadiazol-5-yl)benzenecarbonitrile] | No |  | hMAO-B inhibition up to 10 μM [2]: No |
| O=c1c(-c2ccc(O)cc2)coc2cc(OCc3coc(-c4cc(F)cc(F)c4)n3)ccc12 [PT-14, 7-{[2-(3,5-difluorophenyl)(1,3-oxazol-4-yl)]methoxy}-3-(4-hydroxyphenyl)chromen-4-one] | No | No |  |
| O=c1c(-c2ccc(O)cc2)coc2cc(OCc3nc(-c4ccccc4)no3)ccc12 [PT-43, 3-(4-hydroxyphenyl)-7-[(3-phenyl(1,2,4-oxadiazol-5-yl))methoxy]chromen-4-one] |  |  | hMAO-A inhibition up to 30 μM [1]: No; hMAO-B inhibition up to 30 μM [2]: No |
| O=c1c(-c2ccc(O)cc2)coc2cc(OCc3coc(-c4cc(F)cc(C(F)(F)F)c4)n3)ccc12 [PT-13, 7-({2-[5-fluoro-3-(trifluoromethyl)phenyl](1,3-oxazol-4-yl)}methoxy)-3-(4-hydroxyphenyl)chromen-4-one] | No | No |  |
| O=c1c(-c2ccc(O)cc2)coc2cc(OCc3noc(-c4cc(F)cc(C(F)(F)F)c4)n3)ccc12 [PT-29, 7-({5-[3-fluoro-5-(trifluoromethyl)phenyl](1,2,4-oxadiazol-3-yl)}methoxy)-3-(4-hydroxyphenyl)chromen-4-one] |  |  | hMAO-A inhibition up to 30 μM [1]: No; hMAO-B inhibition up to 30 μM [2]: No |
| O=C(O)c1cccc(-c2nc(COc3ccc4c(=O)c(-c5ccc(O)cc5)coc4c3)no2)c1 [PT-41, 3-(3-{[3-(4-hydroxyphenyl)-4-oxochromen-7-yloxy]methyl}-1,2,4-oxadiazol-5-yl)benzoic acid] | No |  | hMAO-B inhibition up to 10 μM [2]: No |
| N#Cc1cccc(COc2ccc3c(=O)c(-c4ccc(O)cc4)coc3c2)c1 [PT-25, 3-{[3-(4-hydroxyphenyl)-4-oxochromen-7-yloxy]methyl}benzenecarbonitrile] | No |  | hMAO-B inhibition up to 10 μM [2]: No |
| O=c1c(-c2ccc(O)cc2)coc2cc(OCc3nc(-c4ccc(Cl)cc4)no3)ccc12 [PT-44, 3-(4-hydroxyphenyl)-7-({3-[4-chlorophenyl](1,2,4-oxadiazol-5-yl)}methoxy)chromen-4-one] |  |  | hMAO-A inhibition up to 30 μM [1]: No; hMAO-B inhibition up to 30 μM [2]: No |
| O=c1c(-c2ccc(O)cc2)coc2cc(OCc3noc(-c4cc(C(F)(F)F)ccc4C(F)(F)F)n3)ccc12 [PT-31, 7-({5-[2,5-bis(trifluoromethyl)phenyl](1,2,4-oxadiazol-3-yl)}methoxy)-3-(4-hydroxyphenyl)chromen-4-one] | No |  | hMAO-B inhibition up to 10 μM [2]: No |
| NC(=O)c1ccc(COc2ccc3c(=O)c(-c4ccc(O)cc4)coc3c2)cc1 [PT-37, 4-{[3-(4-hydroxyphenyl)-4-oxochromen-7-yloxy]methyl}benzamide] |  |  | hMAO-A inhibition up to 30 μM [1]: No; hMAO-B inhibition up to 30 μM [2]: No |
| O=c1c(-c2ccc(O)cc2)coc2cc(OCc3cc(-c4cc(C(F)(F)F)cc(C(F)(F)F)c4)on3)ccc12 [PT-62, 7-({5-[3,5-bis(trifluoromethyl)phenyl]isoxazol-3-yl}methoxy)-3-(4-hydroxyphenyl)chromen-4-one] | No | no |  |
| COc1ccc(COc2ccc3c(=O)c(-c4ccc(O)cc4)coc3c2)cc1C(F)(F)F [PT-27, 3-(4-hydroxyphenyl)-7-{[4-methoxy-3-(trifluoromethyl)phenyl]methoxy}chromen-4-one] | No |  | hMAO-B inhibition up to 10 μM [2]: No |
| O=c1c(-c2ccc(O)cc2)coc2cc(OCc3noc(-c4ccc(C(F)(F)F)cc4)n3)ccc12 [PT-38, 3-(4-hydroxyphenyl)-7-({5-[4-(trifluoromethyl)phenyl](1,2,4-oxadiazol-3-yl)}methoxy)chromen-4-one] |  |  | hMAO-A inhibition up to 30 μM [1]: No; hMAO-B inhibition up to 30 μM [2]: No |
| O=c1c(-c2ccc(O)cc2)coc2cc(OCc3noc(-c4ccc(F)cc4)n3)ccc12 [PT-11, 7-{[5-(4-fluorophenyl)(1,2,4-oxadiazol-3-yl)]methoxy}-3-(4-hydroxyphenyl)chromen-4-one] | No |  | hMAO-B inhibition at 10 μM ([2]; listed as PT-104, 10 µM): No |
| CS(=O)(=O)Nc1ccc(-c2coc3cc(OCc4noc(-c5cc(F)cc(C(F)(F)F)c5)n4)ccc3c2=O)cc1 [PT-70, 7-({5-[3-fluoro-5-(trifluoromethyl)phenyl](1,2,4-oxadiazol-3-yl)}methoxy)-3-{4-[(methylsulfonyl)amino]phenyl}chromen-4-one] | No |  |  |
